Source: patent US10052304B2, “Compositions and methods for cancer therapy” (UNIVERSITY OF IOWA RESEARCH FOUNDATION, priority 2015, dated 2018)
“And” between values parts separate entries of the source, which are not always exact repeats. Equal entries are not always repeated.

Assays:
NSCLC cells = test: Cellular labile iron pool (Calcein-AM flow cytometry), NSCLC cells; format: cell-based, human; settings: increasing doses of ascorbate
Method: The labile iron pool (LIP) was visualized using the fluorescent dye Calcein-AM as previously described (Epsztejn et al., 1997) with modifications. After labeling, samples were divided into two flow cytometry sample tubes, to which 100 μM 2′,2′-bipyridyl (BIP) was added to one tube and analyzed by flow cytometry. BIP tubes were incubated for at least 15 minutes before analysis to allow for full chelation of intracellular labile iron. The LIP (A.U.)=MFIBIP−MFINoBIP was normalized against the control samples to calculate the relative labile iron pool.
The labile iron pool (LIP) was visualized using the fluorescent dye Calcein-AM as previously described with modifications (Epsztejn et al., 1997). Briefly, after sample treatment, cells were trypsinized, spun at 1,200 rpm for 5 min, and resuspended at approximately 1×10^6 cells mL-1 in 500 nM Calcein-AM in PBS. Samples were incubated for 15 min at 4% O2 in a humidity controlled environment (37° C., 5% CO2). Subsequently, samples were pelleted, washed in PBS, and resuspended in 1 mL PBS before dividing each sample into two flow cytometry sample tubes, to which 100 μM 2′,2′-bipyridyl (BIP) was added to one tube. Samples were kept at room temperature and analyzed on a LSR II Flow Cytometer (BD Biosciences; λex=488 nm, λem=515/20 nm). […]

U118 cells = test: Clonogenic survival assay, U118 GBM cells; format: cell-based, human
Method: Treatment conditions for individual experiments are as described in the figure legends and summarized in the Supplemental Experimental Procedures.
1-2×10^5 cells were plated in 60 mm cell culture dishes and grown in their respective media for 48 h before exposed to experimental conditions. […] For AdGPx1 experiments, cells were supplemented with 50 nM sodium selenite following transduction and throughout clonogenic growth. […] After treatment, cells were washed with PBS and clonogenic assay was completed in their respective media. Briefly, floating and attached cells were collected and total cells per plate were counted. An experimentally derived number of cells were plated into each well of a 6-well cell culture plate in their respective media. For HEL92.1.7 suspension cells, cells were seeded in a top layer of 0.4% (w/v) agarose to allow for quantifiable colony formation. […] Normalized survival fractions were calculated by comparing plating efficiencies of each treatment group against the control group within a given experiment.

[1] = Ascorbate quantification in mouse plasma, tumor and CSF after IP ascorbate; format: in vivo, mice
Method: Tumor xenografts were excised and flash frozen in liquid nitrogen until analysis. Mouse whole blood was collected by cardiac puncture, and plasma was collected after the sample was centrifuged at 500 g for 10 min and frozen until analysis. For patient samples, whole blood was collected from clinical trial patients (NaHeparin 75 USP units, BD Vacutainer® green top blood collection tube, 4 mL), and plasma was collected after centrifugation at 500 g for 10 min and aliquoted and stored at −80° C. until analysis.
Tumor xenografts were excised and flash frozen in liquid nitrogen until analysis. Mouse whole blood was collected by cardiac puncture, and plasma was collected after the sample was centrifuged at 500 g for 10 min and frozen until analysis. For patient samples, whole blood was collected from clinical trial patients (NaHeparin 75 USP units, BD Vacutainer® green top blood collection tube, 4 mL), and plasma was collected after centrifugation at 500 g for 10 min and aliquoted and stored at −80° C. until analysis. […] Briefly, samples were extracted in a buffer containing 90% methanol and 10% water with 250 μM DETAPAC (90:10, v/v), mixed, and incubated on ice for 10 min to precipitate protein. The samples were clarified by centrifugation (16 g, 10 min) with an Eppendorf model 5415D Microfuge. Specifically, samples were diluted at a ratio of 50 μL of plasma to 450 μL extraction buffer. These samples were then further diluted another 77.5 to 105-fold (therefore, 775-1,050 fold overall) in a buffer containing 72% methanol and 28% water with 250 μM DETAPAC (72:28, v/v). […] This protocol ensured that all samples had identical methanol content which is critical for accurate quantification (Vislisel et al., 2007). 100 μL aliquots of the samples or standards were placed in 96-well optical bottom black plates (Thermo Fisher Scientific, Rochester, N.Y., USA). The assay was initiated at room temperature by adding 100 μL of 2.3 mM 4-hydroxy-2,2,6,6-tetramethylpiperidinyloxyl (Tempol) in 2 M sodium acetate trihydrate buffer previously adjusted to pH 5.5 with acetic acid. […] Subsequently, 42 μL of 5.5 mM ortho-phenylenediamine (oPDA) in 2 M sodium acetate buffer (pH 5.5) was added to the samples. Kinetic measurements were immediately initiated and collected every 22 s using a TECAN SpectraFluor Plus plate reader (Tecan, Research Triangle Park, N.C., USA) for the fluorescent condensation product of the reaction of oPDA with DHA (3-dihydroxyethyl)furo[3,4-b]quinoxaline-1-one; λex=345 nm, λem=425 nm). […] Briefly, plasma samples were measured spectrophotometrically (265 nm; ε=13,000 M-1 cm-1) using an Implen Nanophotometer P-330 with a 250× dilution lid, path length=4.00×10-3 cm. The blank for each sample was a pair-‘pre-infusion’ plasma sample, which allowed removal of the background absorbance of plasma proteins and other constituents.
Briefly, mice were anesthetized (17.5 mg ml^−1 ketamine/2.5 mg ml^−1 xylazine mixture), restrained in a stereotaxic frame with an acute head angle, and the dura mater covering the foramen magnum was surgically exposed. CSF was collected by capillary action following minimal puncture of the dura mater and frozen until EPR analysis. Ascorbyl radical EPR spectra were obtained by placing the capillary tube into the bottom of a 250 mm×3 mm (ID) thin walled quartz EPR tube (707-SQ-250M Wilmad-Lab Glass, Vineland, N.J.) centered in a Bruker HS EPR cavity (Bruker, Billerica, Mass.). […]

GBM subjects = test: Phase I clinical trial of pharmacological ascorbate with radiation and temozolomide in GBM
Method: The study was broken into two phases: radiation phase and adjuvant phase. Radiation phase was defined as the time period from day 1 of radiation through adjuvant cycle 1, day 1.
Adjuvant phase was defined as the time period from cycle 1 day 1 through cycle 6 day 28. […] Prescribed doses utilized the same cohorts as the radiation phase. Subjects were dose-escalated after 2 infusions until a plasma level of 20 mM was achieved. […] Temozolomide was prescribed consistent with the Stupp regimen: 150 mg m^−2 for days 1 through 5 of a 28 day cycle. A one-time dose escalation was allowed to 200 mg/m^2 if cycle 1 was tolerated (FIG. 18A).
All subjects agreed to, and participate in, lifelong follow-up for this study. Subject numbers are for convenience and not representative of case ID numbers.
The study was broken into two phases: radiation phase and adjuvant phase. Radiation phase was defined as the time period from day 1 of radiation through adjuvant cycle 1, day 1. […] Cohorts were defined as 15 g, 25 g, 50 g, 62.5 g, 75 g, 87.5 g, 100 g, and 125 g. […] Adjuvant phase was defined as the time period from cycle 1 day 1 through cycle 6 day 28. […] Prescribed doses utilized the same cohorts as the radiation phase. Subjects were dose-escalated after 2 infusions until a plasma level of 20 mM was achieved. […] Temozolomide was prescribed consistent with the Stupp regimen: 150 mg m-2 for days 1 through 5 of a 28 day cycle. A one-time dose escalation was allowed to 200 mg/m2 if cycle 1 was tolerated (FIG. 18A). […] Dose limiting toxicities (DLTs) for the study included grade 4 infection, grade 3 nausea or vomiting despite maximum supportive care, grade 4 neutropenia or thrombocytopenia, and serious adverse events (SAE) with causality to the investigational agent. In addition to DLT, criteria for removal included progressive disease, patient's refusal to continue treatment, and extraordinary medical circumstances (e.g., the constraints of the protocol are considered detrimental to patient health). All subjects agreed to, and participate in, lifelong follow-up for this study. Subject numbers are for convenience and not representative of case ID numbers.

ARP1 myeloma cells = test: ARP1 myeloma tumor-bearing model, IP injection, NOD-SCID mice; format: in vivo; settings: ascorbate 4 g/kg approximately 15 days, n=3
Method: This experiment was repeated in a tumor-bearing mouse model through IP injection of ARP1 myeloma cells, which allows a solid tumor growth when implanted in mice purpose. A total of […] ARP1 MM cells (in 50 μl PBS) per mouse were injected into NOD-SCID mice through IP.

terminal cancer patients = settings: high doses of ascorbate given both IV and orally; cited from earlier work
[2] = Example 1: two hours after last radiation treatment, 4 g/kg IP
[3] = Example 4: 1 h after IP ascorbate 4 g kg^−1, H292 xenograft mice
[4] = ascorbate + radiation + temozolomide
[5] = ascorbate + radiation + temozolomide, 11 subjects

## O=C1O[C@H]([C@@H](O)CO)C(O)=C1O [ascorbate, L-ascorbic acid]
NSCLC cells
  cellular LIP after ascorbate: significant dose-dependent ascorbate-induced increases in cellular LIP
U118 cells; 1 h ascorbate + 25 μM temozolomide + 2 Gy IR
  sensitization to temozolomide + IR (clonogenic survival): selectively sensitized
U118 cells; ascorbate alone, increasing concentrations, 1 h
  clonogenic survival / cell killing: dose-dependent clonogenic cell killing
[1]; [2]
  plasma ascorbate concentration vs non-ascorbate treated mice: significantly higher
  tumor ascorbate concentration vs non-ascorbate treated mice: significantly higher
[1]; [3]
  ascorbate level in plasma: significantly increased ascorbate levels
  ascorbate level in tumor: significantly increased ascorbate levels
[1]; Example 4: 1 h after IP ascorbate 4 g kg^−1, healthy nude mice
  ascorbate level in cerebrospinal fluid (ascorbyl radical EPR): significantly increased ascorbate levels
GBM subjects; 87.5 g infusions
  desired therapeutic blood level (≥20 mM target plasma concentration) reached: achieved in all subjects
GBM subjects; all 13 subjects, 15-125 g/infusion IV
  safety and tolerability: safe and well tolerated
GBM subjects; as of 7/28/15
  patients that completed the radiation phase still living: 10 of 11
GBM subjects; [4]
  OS range: 7.3-29.3 m and 7.3-31.1 m
  PFS range: 3.4-29.3 m and 3.4-31.1 m
  estimated median overall survival (Kaplan-Meier): 28.4 months
  mean progression free survival as of 7/28/15: 14 months
  median OS: 15.5 m
  median PFS: 9.4 m
GBM subjects; [5]
  average overall survival (OS): 18.2 months
  average progression free survival (PFS): 11.9 months
  current median overall survival (OS): 16.5 months
  median progression free survival (PFS): 9.4 months
GBM subjects; in combination with radiation and temozolomide
  adverse events attributed to pharmacological ascorbate: no adverse events attributed to pharmacological ascorbate
GBM subjects; of 11 subjects in longevity analysis
  subjects remaining alive: 7
ARP1 myeloma cells
  final tumor volume: 50±30 mm3
Terminal cancer patients
  average increase in survival: 300 days
